Source: US20080051420A1, “New Compounds 317” (AstraZeneca AB, priority 2006, published 2008)

target: T1, human β-secretase (Homo sapiens, UniProt P56817); test: TR-FRET assay (β-secretase enzyme, sBACE-Fc); type: biochemical; details: read-out: IC50 in TR-FRET assay
T1 construct: The soluble part of the human β-secretase (AA 1-AA 460) was cloned; made in house
Method: The enzyme used in the IGEN Cleavage-, Fluorescent-, TR-FRET- and BiaCore assays is described as follows:
The soluble part of the human β-secretase (AA 1-AA 460) was cloned into the ASP2-F10-1-IRES-GFP-neoK mammalian expression vector. The gene was fused to the Fc domain of IgG1 (affinity tag) and stably cloned into HEK 293 cells. Purified sBACE-Fc is stored in Tris buffer, pH 9.2 and has a purity of 95%.
Enzyme was diluted to 6 μg/mL and the substrate (Europium)[…](Qsy7) to 200 nM in reaction buffer (NaAcetate, chaps, triton x-100, EDTA pH 4.5). Compounds were diluted to the desired concentration in dimethyl sulfoxide (final dimethyl sulfoxide concentration in assay is 5%). […] Enzyme (9 μL) and 1 μL of compound in dimethyl sulfoxide was added to the plate, mixed and pre-incubated for 10 min. Substrate (10 μL) was added and the reaction proceeded in the dark for 15 min at RT. The reaction was stopped with the addition of 7 μL NaAcetate, pH 9. […] The dimethyl sulfoxide control defined the 100% activity level and 0% activity was defined by exclusion of the enzyme (using reaction buffer instead).

T1 sequence (P56817 22-460): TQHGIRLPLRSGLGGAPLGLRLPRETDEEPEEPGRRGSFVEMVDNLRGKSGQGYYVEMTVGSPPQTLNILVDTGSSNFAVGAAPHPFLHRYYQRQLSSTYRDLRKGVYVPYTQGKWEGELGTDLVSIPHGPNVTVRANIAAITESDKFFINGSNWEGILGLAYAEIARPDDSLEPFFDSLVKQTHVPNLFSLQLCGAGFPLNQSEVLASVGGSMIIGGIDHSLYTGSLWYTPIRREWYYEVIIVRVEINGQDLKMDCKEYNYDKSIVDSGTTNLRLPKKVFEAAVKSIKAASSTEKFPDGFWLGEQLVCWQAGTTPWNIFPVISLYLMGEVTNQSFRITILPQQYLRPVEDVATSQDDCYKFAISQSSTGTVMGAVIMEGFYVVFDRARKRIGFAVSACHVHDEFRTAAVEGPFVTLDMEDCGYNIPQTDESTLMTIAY

Question: Which IC50 does the source give for “4-[5-Amino-7-(3′,5′-dichlorobiphenyl-3-yl)-2,7-dihydro-3H-imidazo[1,5-a]imidazol-7-yl]phenyl methanesulfonate 0.25 acetate [Example 75]” here?
Answer: Its IC50 is 146 nM.

Question: For `COc1cccc(-c2cccc(C3(c4ccc(OS(C)(=O)=O)cc4)N=C(N)N4CCCN=C43)c2)c1` (stereo not drawn) [Example 31, 4-[6-Amino-8-(3′-methoxybiphenyl-3-yl)-2,3,4,8-tetrahydroimidazo[1,5-a]pyrimidin-8-yl]phenyl methanesulfonate acetate], which IC50 is on record?
Answer: The IC50 was 156 nM.

Question: `CS(=O)(=O)Oc1ccc(C2(c3cccc(-c4cnccn4)c3)N=C(N)N3CCCN=C32)cc1` (stereo not drawn) [Example 32, 4-[6-Amino-8-(3-pyrazin-2-ylphenyl)-2,3,4,8-tetrahydroimidazo[1,5-a]pyrimidin-8-yl]phenyl methanesulfonate acetate] was tested. Which IC50 did it give?
Answer: Its IC50 is 501 nM.

Question: `CS(=O)(=O)Oc1ccc(C2(c3cccc(-c4cncc(F)c4)c3)N=C(N)N3CCCN=C32)cc1` (stereo not drawn) [Example 33, 4-{6-Amino-8-[3-(5-fluoropyridin-3-yl)phenyl]-2,3,4,8-tetrahydroimidazo[1,5-a]pyrimidin-8-yl}phenyl methanesulfonate acetate] was tested. Which IC50 did it give?
Answer: Its IC50 is 397 nM.

Question: `COc1cncc(-c2cccc(C3(c4ccc(OS(C)(=O)=O)cc4)N=C(N)N4CCCN=C43)c2)c1` (stereo not drawn) [Example 34, 4-{6-Amino-8-[3-(5-methoxypyridin-3-yl)phenyl]-2,3,4,8-tetrahydroimidazo[1,5-a]pyrimidin-8-yl}phenyl methanesulfonate acetate] was tested. Which IC50 did it give?
Answer: Its IC50 is 161 nM.

Question: For `CS(=O)(=O)Oc1ccc(C2(c3cccc(-c4cccc(OC(F)(F)F)c4)c3)N=C(N)N3CCCN=C32)cc1` (stereo not drawn) [Example 41, 4-{6-Amino-8-[3′-(trifluoromethoxy)biphenyl-3-yl]-2,3,4,8-tetrahydroimidazo[1,5-a]pyrimidin-8-yl}phenyl methanesulfonate 0.5 acetate], which IC50 is on record?
Answer: Its IC50 is 981 nM.

Question: With `CCOc1cccc(-c2cccc(C3(c4ccc(OS(C)(=O)=O)cc4)N=C(N)N4CCCN=C43)c2)c1` (stereo not drawn) [Example 44, 4-[6-Amino-8-(3′-ethoxybiphenyl-3-yl)-2,3,4,8-tetrahydroimidazo[1,5-a]pyrimidin-8-yl]phenyl methanesulfonate 0.5 acetate] as the compound, how does the IC50 read?
Answer: Its IC50 is 471 nM.

Question: With `COc1ccc(C2(c3cccc(-c4cc(OC)cc(OS(C)(=O)=O)c4)c3)N=C(N)N3CCCN=C32)cc1` (stereo not drawn) [Example 52, 3′-[6-Amino-8-(4-methoxyphenyl)-2,3,4,8-tetrahydroimidazo[1,5-a]pyrimidin-8-yl]-5-methoxybiphenyl-3-yl methanesulfonate acetate] as the compound, how does the IC50 read?
Answer: The IC50 was 43 nM.

Question: For `CCCS(=O)(=O)Oc1ccc(C2(c3cccc(-c4cnccn4)c3)N=C(N)N3CCCN=C32)cc1` (stereo not drawn) [Example 54, 4-[6-Amino-8-(3-pyrazin-2-ylphenyl)-2,3,4,8-tetrahydroimidazo[1,5-a]pyrimidin-8-yl]phenyl propane-1-sulfonate acetate], which IC50 is on record?
Answer: Its IC50 is 347 nM.

Question: Which IC50 does the source give for `CCCS(=O)(=O)Oc1ccc(C2(c3cccc(-c4cccc(OC)c4)c3)N=C(N)N3CCCN=C32)cc1` (stereo not drawn) [Example 55, 4-[6-Amino-8-(3′-methoxybiphenyl-3-yl)-2,3,4,8-tetrahydroimidazo[1,5-a]pyrimidin-8-yl]phenyl propane-1-sulfonate 0.75 acetate] here?
Answer: The IC50 was 139 nM.

Question: With `CCCS(=O)(=O)Oc1ccc(C2(c3cccc(-c4cccc(Cl)c4)c3)N=C(N)N3CCCN=C32)cc1` (stereo not drawn) [Example 57, 4-[6-Amino-8-(3′-chlorobiphenyl-3-yl)-2,3,4,8-tetrahydroimidazo[1,5-a]pyrimidin-8-yl]phenyl propane-1-sulfonate 0.75 acetate] as the compound, how does the IC50 read?
Answer: Its IC50 is 71 nM.

Question: For `CCCS(=O)(=O)Oc1ccc(C2(c3cccc(-c4cccnc4F)c3)N=C(N)N3CCCN=C32)cc1` (stereo not drawn) [Example 59, 4-{6-Amino-8-[3-(2-fluoropyridin-3-yl)phenyl]-2,3,4,8-tetrahydroimidazo[1,5-a]pyrimidin-8-yl}phenyl propane-1-sulfonate acetate], which IC50 is on record?
Answer: Its IC50 is 221 nM.
